# “Also recorded” adds a separate entry of the source. Like-named read-outs stand apart in the source and are kept apart here.
# Experiments:
# Assay type in all cases: cell-based
# [1] = test system: Streptococcus mutans OMZ 176; test: Antibacterial activity (MIC, growth in BHI medium); set-up: key to Antibacterial activity (growth): -: grow; ±: slightly grow; +: not grow
# Method: (§1) To a test tube was charged 3.8 ml of Brain Heart Infusion (BHI) medium, and 100 μl of a sample solution containing oleanolic, ursolic or glycyrrhetic acid and 100 μl of pre-incubated culture of bacterium selected from those listed below were added thereto. The mixture was incubated at 37° C. and then allowed to stand over night. The extent of the growth of bacterium was observed after two or five days.
# Streptococcus mutans OMZ 176
# [2] = test system: Streptococcus salivarius ATCC 9222; test: Antibacterial activity (MIC, growth in BHI medium); set-up: key to Antibacterial activity (growth): -: grow; ±: slightly grow; +: not grow
# Method: as §1, with “days. The MIC value was determined for each sample and summarized in Table 2. |Streptococcus salivarius ATCC 9222” for “days.”
# [3] = test system: Bacillus megaterium QM B1551; test: Antibacterial activity (MIC, growth in BHI medium); set-up: key to Antibacterial activity (growth): -: grow; ±: slightly grow; +: not grow
# Method: as §1, with “days. The MIC value was determined for each sample and summarized in Table 2. |Bacillus megaterium QM B1551” for “days.”
# [4] = test system: Staphylococcus aureus 209P; test: Antibacterial activity (MIC, growth in BHI medium); set-up: key to Antibacterial activity (growth): -: grow; ±: slightly grow; +: not grow
# Method: as §1, with “days. The MIC value was determined for each sample and summarized in Table 2. |Staphylococcus aureus […]” for “days.”
# Esherichia coli K12 = test: Antibacterial activity (MIC, growth in BHI medium); set-up: key to Antibacterial activity (growth): -: grow; ±: slightly grow; +: not grow
# Method: as §1
# Esherichia coli K12 (Gram negative)
# [5] = test system: Serratia marcescens IFO 12648; test: Antibacterial activity (MIC, growth in BHI medium); set-up: key to Antibacterial activity (growth): -: grow; ±: slightly grow; +: not grow
# Method: as §1, with “days. The MIC value was determined for each sample and summarized in Table 2. |Serratia marcescens IFO 12648” for “days.”
# [6] = test system: Pseudomonas aeruginosa KM338; test: Antibacterial activity (MIC, growth in BHI medium); set-up: key to Antibacterial activity (growth): -: grow; ±: slightly grow; +: not grow
# Method: as §1, with “days. The MIC value was determined for each sample and summarized in Table 2. |Pseudomonas aeruginosa KM338” for “days.”
# [7] = test system: S. mutans OMZ 176 (serotype d); test: microbe, parasite or virus in culture; settings: for inhibition at 10 µg/mL / inhibition at 20 µg/mL / inhibition at 30 µg/mL / inhibition at 50 µg/mL / inhibition at 100 µg/mL: Streptococcus mutans, read-out: Adherence-inhibiting activity (AIP); for adherence-inhibiting activity (in words): text statement
# Method: The adherence-inhibiting activity of the triterpenes of the formula (I) was measured using an inner wall of a test tube in place of the surface of a tooth.
# To 2.9 ml of BHI medium containing 5% sucrose in a test tube (i) are added 30 μl of a sample solution prepared by dissolving a compound of: the formula (I) in H2 O or dimethylsulfoxide (DMSO) and 100 μl of culture medium containing S. mutans OMZ 176 (serotype d) which was preincuvated at 37° C. for 24 hours in BHI medium, and the mixture is incubated at 37° C. for 20 hours, with the test tube being maintained at a slant of 30°. The test tube is revolved gently two or three times and the supernatant is transferred to another test tube (ii). To the first test tube (i) is added 3 ml of 50 mM phosphate buffer (pH 7.5), and the test tube is gently revolved two or three times. The resultant supernatant is transferred to the third test tube (iii). The test tubes (ii) and (iii) are each centrifuged and respective supernatants are discarded. To each of the test tubes (i), (ii) and (iii) is added 3 ml of 0.5M NaOH, and the test tubes are shaken to suspend bacterial cells. Absorbance of the resulting suspension is measured at 660 nm. The absorbances obtained with respect to the test tube (i), (ii) and (iii) are represented by Ab(i), Ab(ii) and Ab(iii), respectively. Ab(i) reflects the amount of the bacterial cells adhered to the wall of the test tube and Ab(ii) and Ab(iii) correspond to the amount of the bacterial cells not adhered to the wall.
# The same procedure is repeated using 30 μl of distilled water or DMSO in place of the sample solution to obtain a control. The absorbance of the control is represented by Ab(Cont.).
# Adherence percentage of bacteria is calculated from the following equation. [formula]
# Adherence inhibitory percentage (AIP) is calculated using the adherence percentage according to the following equation. [formula]
# The magnitude of adherence-inhibiting activity of each of the samples is shown, in Table 3, by the use of the following symbols: […]
molecule,measurement,setting,value
CC1(C)[C@@H](O)CC[C@]2(C)[C@H]3C(=O)C=C4[C@@H]5C[C@@](C)(C(=O)O)CC[C@]5(C)CC[C@@]4(C)[C@]3(C)CC[C@@H]12 [Glycyrrhetic acid],antibacterial activity to S. mutans (in words),[1],exhibits a selective antibacterial activity on S. mutans and Bacillus megaterium; also recorded: very strong and selective antibacterial activity to S. mutans
same,Antibacterial activity (growth),[1]; 10 μg/ml,+
same,Antibacterial activity (growth),[1]; 25 μg/ml,+
same,Antibacterial activity (growth),[1]; 50 μg/ml,+
same,Antibacterial activity (growth),[1]; 100 μg/ml,+
same,Antibacterial activity (growth),[1]; 200 μg/ml,+
same,Antibacterial activity (growth),[1]; 400 μg/ml,+
same,MIC (minimum inhibitory concentration),"[1]; Streptococcus mutans OMZ 176, BHI, 37° C.",lower than 10 μg/ml
same,MIC,"[1]; Streptococcus mutans, OMZ176, Streptococcus mutans OMZ 176, BHI, 37° C., read-out: MIC (minimum inhibitory concentration)",10 µg/mL
same,Antibacterial activity (growth),[2]; 10 μg/ml,-
same,Antibacterial activity (growth),[2]; 25 μg/ml,-
same,Antibacterial activity (growth),[2]; 50 μg/ml,-
same,Antibacterial activity (growth),[2]; 100 μg/ml,-
same,Antibacterial activity (growth),[2]; 200 μg/ml,-
same,Antibacterial activity (growth),[2]; 400 μg/ml,±
same,MIC,"[2]; ATCC9222, Streptococcus salivarius, BHI, 37° C., read-out: MIC (minimum inhibitory concentration)",> 400 µg/mL
same,antibacterial action on Streptococcus salivarius (in words),[2]; text statement,remain unaffected
same,Antibacterial activity (growth),[3]; 10 μg/ml,-
same,Antibacterial activity (growth),[3]; 25 μg/ml,+
same,Antibacterial activity (growth),[3]; 50 μg/ml,+
same,Antibacterial activity (growth),[3]; 100 μg/ml,+
same,Antibacterial activity (growth),[3]; 200 μg/ml,+
same,Antibacterial activity (growth),[3]; 400 μg/ml,+
same,MIC,"[3]; Priestia megaterium, QMB1551, Bacillus megaterium, BHI, 37° C., read-out: MIC (minimum inhibitory concentration)",25 µg/mL
same,antibacterial activity on Bacillus megaterium (in words),[3]; text statement,exhibits a selective antibacterial activity on S. mutans and Bacillus megaterium
same,Antibacterial activity (growth),[4]; 10 μg/ml,-
same,Antibacterial activity (growth),[4]; 25 μg/ml,-
same,Antibacterial activity (growth),[4]; 50 μg/ml,-
same,Antibacterial activity (growth),[4]; 100 μg/ml,-
same,Antibacterial activity (growth),[4]; 200 μg/ml,-
same,Antibacterial activity (growth),[4]; 400 μg/ml,-
same,MIC,"[4]; 209P, Staphylococcus aureus, BHI, 37° C., read-out: MIC (minimum inhibitory concentration)",400 µg/mL
same,antibacterial action on Staphylococcus aureus (in words),[4]; text statement,remain unaffected
same,Antibacterial activity (growth),Esherichia coli K12; 10 μg/ml,-
same,Antibacterial activity (growth),Esherichia coli K12; 25 μg/ml,-
same,Antibacterial activity (growth),Esherichia coli K12; 50 μg/ml,-
same,Antibacterial activity (growth),Esherichia coli K12; 100 μg/ml,-
same,Antibacterial activity (growth),Esherichia coli K12; 200 μg/ml,-
same,Antibacterial activity (growth),Esherichia coli K12; 400 μg/ml,-
same,MIC,"Esherichia coli K12; Esherichia coli, BHI, 37° C., read-out: MIC (minimum inhibitory concentration)",> 400 µg/mL
same,antibacterial action on Escherichia coli (in words),Esherichia coli K12; text statement,remain unaffected
same,Antibacterial activity (growth),[5]; 10 μg/ml,-
same,Antibacterial activity (growth),[5]; 25 μg/ml,-
same,Antibacterial activity (growth),[5]; 50 μg/ml,-
same,Antibacterial activity (growth),[5]; 100 μg/ml,-
same,Antibacterial activity (growth),[5]; 200 μg/ml,-
same,Antibacterial activity (growth),[5]; 400 μg/ml,-
same,MIC,"[5]; IFO12648, Serratia marcescens, BHI, 37° C., read-out: MIC (minimum inhibitory concentration)",> 400 µg/mL
same,antibacterial action on Serratia marcescens (in words),[5]; text statement,remain unaffected
same,Antibacterial activity (growth),[6]; 10 μg/ml,-
same,Antibacterial activity (growth),[6]; 25 μg/ml,-
same,Antibacterial activity (growth),[6]; 50 μg/ml,-
same,Antibacterial activity (growth),[6]; 100 μg/ml,-
same,Antibacterial activity (growth),[6]; 200 μg/ml,-
same,Antibacterial activity (growth),[6]; 400 μg/ml,-
same,MIC,"[6]; KM338, Pseudomonas aeruginosa, BHI, 37° C., read-out: MIC (minimum inhibitory concentration)",> 400 µg/mL
same,antibacterial action on Pseudomonas aeruginosa (in words),[6]; text statement,remain unaffected
"CC1(C)[C@@H](O[C@H]2O[C@H](C(=O)O)[C@@H](O)[C@H](O)[C@H]2O[C@@H]2O[C@H](C(=O)O)[C@@H](O)[C@H](O)[C@H]2O)CC[C@]2(C)[C@H]3C(=O)C=C4[C@@H]5C[C@@](C)(C(=O)O)CC[C@]5(C)CC[C@@]4(C)[C@]3(C)CC[C@@H]12 [Glycyrrizic acid, reference compound]",antibacterial activity to S. mutans (in words),[1]; text statement,could not be observed
same,inhibition at 10 µg/mL,[7],< 25%
same,inhibition at 20 µg/mL,[7],< 25%
same,inhibition at 30 µg/mL,[7],< 25%
same,inhibition at 50 µg/mL,[7],< 25%
same,inhibition at 100 µg/mL,[7],< 25%
same,adherence-inhibiting activity (in words),[7],could not be observed
"COC(=O)[C@]12CCC(C)(C)C[C@H]1C1=CC[C@@H]3[C@@]4(C)CC[C@H](O)C(C)(C)[C@@H]4CC[C@@]3(C)[C@]1(C)CC2 [Methyl oleanolate (17-position) (a), Methyl oleanolate, reference compound]",inhibition at 10 µg/mL,[7],< 25%
same,inhibition at 20 µg/mL,[7],< 25%
same,inhibition at 30 µg/mL,[7],< 25%
same,inhibition at 50 µg/mL,[7],< 25%
same,inhibition at 100 µg/mL,[7],< 25%
"CC1(C)CC[C@]2(CO)CC[C@]3(C)C(=CC[C@@H]4[C@@]5(C)CC[C@H](O)C(C)(C)[C@@H]5CC[C@]43C)[C@@H]2C1 [Oleanolic acid (acid reductant) (b), reference compound]",inhibition at 10 µg/mL,[7],< 25%
same,inhibition at 20 µg/mL,[7],< 25%
same,inhibition at 30 µg/mL,[7],< 25%
same,inhibition at 50 µg/mL,[7],< 25%
same,inhibition at 100 µg/mL,[7],< 25%
"CC1(C)CC[C@]2(C)CC=C3[C@]4(C)CC[C@H]5C(C)(C)[C@@H](O)CC[C@]5(C)[C@H]4CC[C@@]3(C)[C@@H]2C1 [Taraxerol, reference compound]",antibacterial activity to S. mutans (in words),[1]; text statement,could not be observed
same,inhibition at 10 µg/mL,[7],< 25%
same,inhibition at 20 µg/mL,[7],< 25%
same,inhibition at 30 µg/mL,[7],< 25%
same,inhibition at 50 µg/mL,[7],< 25%
same,inhibition at 100 µg/mL,[7],< 25%
same,adherence-inhibiting activity (in words),[7],could not be observed
CC(=O)O[C@H]1CC[C@]2(C)[C@H]3CC=C4[C@@H]5CC(C)(C)CC[C@]5(C(=O)O)CC[C@@]4(C)[C@]3(C)CC[C@H]2C1(C)C [reference compound],inhibition at 10 µg/mL,[7],< 25%
same,inhibition at 20 µg/mL,[7],< 25%
same,inhibition at 30 µg/mL,[7],< 25%
same,inhibition at 50 µg/mL,[7],25 to 50%
same,inhibition at 100 µg/mL,[7],25 to 50%
"Chikusetsusaponin V [Chikusetsusaponin V (e), reference compound]",antibacterial activity to S. mutans (in words),[1]; text statement,could not be observed
same,adherence-inhibiting activity (in words),[7],could not be observed
